# From paper PMC11850406, “Large-scale screening of HIV-1 T-cell epitopes restricted by 12 prevalent HLA-A allotypes in Northeast Asia and universal detection of HIV-1-specific CD8^+ T cells” (Frontiers in Microbiology, 2025)
# Where two headings read alike, the source gives them in different places. Where no end group is shown, it is not given here.
# Tests used:
# [1] = target: T1, HLA-A3101 (Homo sapiens, UniProt P04439, A270S/D185E/E176V/E277Q/F33T/G231S/G80R/H175R/I121M/I218V/I322F/K168Q/L300P/L318F/M331R/P217A/Q94H/R138Q/T323A/T345S/T97I/V358M); assay: Peptide competitive binding assay, HMy2.CIR cells expressing A3101; details: for IC50: read-out: Affinity
# T1 construct: expressed in transfected cells; host or cells: HMy2.CIR
# [2] = target: T2, HLA-A3001 (Homo sapiens, UniProt P04439, D140H/D185E/E176W/F33S/G80R/H175R/K168Q/R138E/R41S); assay: cell-based; assay type: binding
# T2 construct: expressed in transfected cells; host or cells: HMy2.CIR
# [3] = target: HLA-A3303 (Homo sapiens, UniProt P04439, A270S/D185E/E176V/E277Q/E87N/F33T/G231S/H175R/I121M/I218V/I322F/K168Q/L300P/L318F/M331R/P217A/Q86R/Q94H/R138Q/T323A/T345S/T97I/V358M); assay: Peptide competitive binding assay, HMy2.CIR cells expressing A3303; details: for IC50: read-out: Affinity; for inhibition at 5 µM: peptide 5 μM vs FITC-labeled reference peptide 300 nM; for inhibition at 5 µM / inhibition at 15 µM: 24 h, 4°C, flow cytometry; for inhibition at 15 µM: peptide 15 μM vs FITC-labeled reference peptide 300 nM
# [4] = target: HLA-A1102 (Homo sapiens, UniProt P04439, A114D/D185E/E176A/E43K/F33Y/L180Q/S129P/T187R); assay: cell-based; assay type: binding; details: for inhibition at 5 µM / inhibition at 15 µM / 5-μM inhibition (%) / 15-μM inhibition (%): A1102, 24 h, 4°C, flow cytometry; for inhibition at 5 µM / 5-μM inhibition (%): peptide 5 μM vs FITC-labeled reference peptide 300 nM; for inhibition at 5 µM: read-out: 5-μM inhibition (%); for inhibition at 15 µM / 15-μM inhibition (%): peptide 15 μM vs FITC-labeled reference peptide 300 nM; for inhibition at 15 µM: read-out: 15-μM inhibition (%)
# [5] = target: T3, HLA-A1101 (Homo sapiens, UniProt P04439, A114D/D185E/E176A/F33Y/L180Q/S129P/T187R); assay: cell-based; assay type: binding; details: for inhibition at 5 µM: peptide 5 μM vs FITC-labeled reference peptide 300 nM, read-out: 5-μM inhibition (%); for inhibition at 5 µM / inhibition at 15 µM: 24 h, 4°C, flow cytometry; for inhibition at 15 µM: peptide 15 μM vs FITC-labeled reference peptide 300 nM, read-out: 15-μM inhibition (%)
# T3 construct: expressed in transfected cells; host or cells: HMy2.CIR
# [6] = target: T4, HLA-A0207 (Homo sapiens, UniProt P04439, D140Y/D185E/D98H/E176V/E277Q/G131W/G231S/I119V/I121R/I166T/I218V/L300P/L318F/N151K/N90K/P208A/P217A/Q86G/Q94H/R138H/R169H/T345S/Y123C); assay: Peptide competitive binding assay, HMy2.CIR cells expressing A0207; details: 24 h, 4°C, flow cytometry; for 5-μM inhibition (%): peptide 5 μM vs FITC-labeled reference peptide 300 nM; for 15-μM inhibition (%): peptide 15 μM vs FITC-labeled reference peptide 300 nM
# T4 construct: expressed in transfected cells; host or cells: HMy2.CIR
# [7] = target: T5, HLA-A0201 (Homo sapiens, UniProt P04439, D140Y/D185E/D98H/E176V/E277Q/G131W/G231S/I119V/I121R/I166T/I218V/L300P/L318F/N151K/N90K/P208A/P217A/Q86G/Q94H/R138H/R169H/T345S); assay: cell-based; assay type: binding; details: A0201, 24 h, 4°C, flow cytometry; for 5-μM inhibition (%): peptide 5 μM vs FITC-labeled reference peptide 300 nM; for 15-μM inhibition (%): peptide 15 μM vs FITC-labeled reference peptide 300 nM
# T5 construct: expressed in transfected cells; host or cells: HMy2.CIR
# [8] = target: T6, HLA-A0206 (Homo sapiens, UniProt P04439, D140Y/D185E/D98H/E176V/E277Q/F33Y/G131W/G231S/I119V/I121R/I166T/I218V/L300P/L318F/N151K/N90K/P208A/P217A/Q86G/Q94H/R138H/R169H/T345S); assay: Peptide competitive binding assay, HMy2.CIR cells expressing A0206
# T6 construct: expressed in transfected cells; host or cells: HMy2.CIR
# [9] = target: T7, HLA-A0203 (Homo sapiens, UniProt P04439, A173T/D140Y/D185E/D98H/E277Q/G131W/G231S/I119V/I121R/I166T/I218V/L180W/L300P/L318F/N151K/N90K/P208A/P217A/Q86G/Q94H/R138H/R169H/T345S); assay: cell-based; assay type: binding; details: A0203, 24 h, 4°C, flow cytometry
# T7 construct: expressed in transfected cells; host or cells: HMy2.CIR
# [10] = A3101, peptide 5 μM vs FITC-labeled reference peptide 300 nM, 24 h, 4°C, flow cytometry
# [11] = A3101, peptide 15 μM vs FITC-labeled reference peptide 300 nM, 24 h, 4°C, flow cytometry
# [12] = A3001, peptide 5 μM vs FITC-labeled reference peptide 300 nM, 24 h, 4°C, flow cytometry
# [13] = A3001, peptide 15 μM vs FITC-labeled reference peptide 300 nM, 24 h, 4°C, flow cytometry
# [14] = peptide 5 μM vs FITC-labeled reference peptide 300 nM, 24 h, 4°C, flow cytometry
# [15] = peptide 15 μM vs FITC-labeled reference peptide 300 nM, 24 h, 4°C, flow cytometry
sequence,measurement,setting,value
RSNFKGSKR [Peptide P97],inhibition at 5 µM,[1]; [10],66.6%
same,inhibition at 15 µM,[1]; [11],92.9%
same,IC50,[1],< 5 µM
RLRGFILVA [Peptide P92],5-μM inhibition (%),[2]; [12],18.53%
same,15-μM inhibition (%),[2]; [13],39.48%
ATLWCVHQR [Peptide P34],IC50,"[3]; A3303, class from inhibition at 5 and 15 μM of FITC-labeled reference peptide binding",< 5 µM
same,inhibition at 5 µM,[3]; A3303,63.8%
same,inhibition at 15 µM,[3]; A3303,77.2%
same,inhibition at 5 µM,[4],3.12%
same,inhibition at 15 µM,[4],13.8%
same,IC50,"[5]; A1101, class from inhibition at 5 and 15 μM of FITC-labeled reference peptide binding, read-out: Affinity",5 to 15 µM
same,inhibition at 5 µM,[5]; A1101,44%
same,inhibition at 15 µM,[5]; A1101,77.8%
YQLEKDPIV [Peptide P11],5-μM inhibition (%),[6],5.57%
same,15-μM inhibition (%),[6],12.66%
same,5-μM inhibition (%),[7],5.87%
same,15-μM inhibition (%),[7],28.56%
KIILVAVHV [Peptide P75],5-μM inhibition (%),[8]; [14],3.69%
same,15-μM inhibition (%),[8]; [15],5.11%
SLFNTVATL [Peptide P10],5-μM inhibition (%),[9]; peptide 5 μM vs FITC-labeled reference peptide 300 nM,20.39%
same,15-μM inhibition (%),[9]; peptide 15 μM vs FITC-labeled reference peptide 300 nM,42.50%
same,5-μM inhibition (%),[6],0.00%
same,15-μM inhibition (%),[6],7.34%
same,5-μM inhibition (%),[7],15.75%
same,15-μM inhibition (%),[7],31.36%
YLKDQKFLGL [Peptide P78],5-μM inhibition (%),[6],11.50%
same,15-μM inhibition (%),[6],30.40%
RLRPGGRKK [Peptide P89],5-μM inhibition (%),[2]; [12],27.40%
same,15-μM inhibition (%),[2]; [13],39.48%
SILDIRQGPK [Peptide P33],IC50,[4],5 to 15 µM
same,inhibition at 5 µM,[4],16.8%
same,inhibition at 15 µM,[4],50.6%
same,IC50,[5],< 5 µM
same,inhibition at 5 µM,[5]; A1101,83.2%
same,inhibition at 15 µM,[5]; A1101,93.1%
IQNFRVYYR [Peptide P112],inhibition at 5 µM,[1]; [10],20.1%
same,inhibition at 15 µM,[1]; [11],25.7%
same,inhibition at 5 µM,[3]; A3303,48.7%
same,inhibition at 15 µM,[3]; A3303,55.1%
same,IC50,[3],5 to 15 µM
VTGIRKNYR [Peptide P99],5-μM inhibition (%),[1]; [10],0.00%
same,15-μM inhibition (%),[1]; [11],15.00%
RANSPTSRK [Peptide P88],5-μM inhibition (%),[4],0.00%
same,15-μM inhibition (%),[4],0.35%
WIILGLNKI [Peptide P72],IC50,"[8]; class from inhibition at 5 and 15 μM of FITC-labeled reference peptide binding, read-out: Affinity",5 to 15 µM
same,inhibition at 5 µM,[8]; [14],40.9%
same,inhibition at 15 µM,[8]; [15],67.3%
KVLKQVTEK [Peptide P87],5-μM inhibition (%),[4],5.66%
same,15-μM inhibition (%),[4],16.76%
KAREFSSER [Peptide P100],IC50,"[1]; A3101, class from inhibition at 5 and 15 μM of FITC-labeled reference peptide binding",5 to 15 µM
same,inhibition at 5 µM,[1]; [10],42.9%
same,inhibition at 15 µM,[1]; [11],95.1%
RVRQGYSPL [Peptide P91],IC50,[2],< 5 µM
same,inhibition at 5 µM,"[2]; A3001, peptide 5 μM vs FITC-labeled reference peptide 300 nM, 24 h, 4°C, flow cytometry, read-out: 5-μM inhibition (%)",92.4%
same,inhibition at 15 µM,"[2]; A3001, peptide 15 μM vs FITC-labeled reference peptide 300 nM, 24 h, 4°C, flow cytometry, read-out: 15-μM inhibition (%)",100%
VLDVGDAYF [Peptide P81],5-μM inhibition (%),[6],0.00%
same,15-μM inhibition (%),[6],23.16%
KVYLSWVPA [Peptide P94],5-μM inhibition (%),[2]; [12],27.40%
same,15-μM inhibition (%),[2]; [13],45.93%
QLTEVVQKV [Peptide P80],5-μM inhibition (%),[6],20.67%
same,15-μM inhibition (%),[6],25.60%
